In paper PMC8708751, “Hit Identification of a Novel Quinazoline Sulfonamide as a Promising EphB3 Inhibitor: Design, Virtual Combinatorial Library, Synthesis, Biological Evaluation, and Docking Simulation Studies” (Pharmaceuticals, 2021):
Like-named read-outs stand apart in the source and are kept apart here.

How the values were obtained:
[1] = target: T1, EGFR kinase (Homo sapiens, UniProt P00533); experiment: EGFR kinase inhibition assay (HotSpot); type: biochemical; conditions: for inhibition at 10 µM / Average % Enzyme Inhibition (Relative to DMSO Controls) at 10 µM: 10 µM compound; for inhibition at 10 µM: 10 µM ATP as printed, read-out: Average % Enzyme Inhibition (Relative to DMSO Controls) at 10 µM; for Average % Enzyme Inhibition (Relative to DMSO Controls) at 10 µM: 10 M [sic] ATP
T1 construct: purchased Reaction Biology Co. (Kinase HotSpot service)

[2] = target: T2, EphB3 kinase (Homo sapiens, UniProt P54753); experiment: EphB3 kinase inhibition assay (HotSpot); type: biochemical; conditions: EphB3 kinase, 10 µM compound, 10 µM ATP; read-out: Average % Enzyme Inhibition at 10 µM (Relative to DMSO Control)
T2 construct: purchased Reaction Biology Co. (Kinase HotSpot service)
T2 sequence (P54753 34-998): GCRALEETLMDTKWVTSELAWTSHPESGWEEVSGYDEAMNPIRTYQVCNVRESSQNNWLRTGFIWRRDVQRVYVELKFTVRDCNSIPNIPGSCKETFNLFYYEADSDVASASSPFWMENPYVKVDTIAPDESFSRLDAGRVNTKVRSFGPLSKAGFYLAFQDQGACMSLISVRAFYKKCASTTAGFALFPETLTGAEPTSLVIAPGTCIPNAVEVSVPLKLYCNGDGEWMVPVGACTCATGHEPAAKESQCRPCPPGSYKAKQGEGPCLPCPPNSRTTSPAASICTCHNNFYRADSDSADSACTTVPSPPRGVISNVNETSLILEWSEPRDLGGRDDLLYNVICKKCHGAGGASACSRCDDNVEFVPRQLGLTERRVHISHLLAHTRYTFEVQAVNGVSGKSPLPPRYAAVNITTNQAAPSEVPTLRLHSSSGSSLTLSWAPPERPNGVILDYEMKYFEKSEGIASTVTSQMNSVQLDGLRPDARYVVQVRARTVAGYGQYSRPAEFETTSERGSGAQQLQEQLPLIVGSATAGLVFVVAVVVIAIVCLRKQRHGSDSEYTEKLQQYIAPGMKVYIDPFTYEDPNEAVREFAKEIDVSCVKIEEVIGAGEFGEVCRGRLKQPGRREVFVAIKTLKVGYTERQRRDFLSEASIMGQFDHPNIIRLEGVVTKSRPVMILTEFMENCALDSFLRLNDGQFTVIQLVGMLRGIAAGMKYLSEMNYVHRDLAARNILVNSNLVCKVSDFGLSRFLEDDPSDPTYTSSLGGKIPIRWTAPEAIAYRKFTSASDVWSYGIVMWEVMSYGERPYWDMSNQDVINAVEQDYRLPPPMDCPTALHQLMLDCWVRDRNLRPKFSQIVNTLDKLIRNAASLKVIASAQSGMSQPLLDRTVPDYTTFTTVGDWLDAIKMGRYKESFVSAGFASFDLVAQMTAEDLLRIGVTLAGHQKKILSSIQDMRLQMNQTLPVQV
Experimental: The synthesized compounds were subjected to in vitro screening over EphB3 kinase. A single dose of 10 µM concentration of each target compound was used in EphB3 kinase inhibition assay, at 10 µM ATP, applying HotSpot^SM technology.
The HotSpot assay platform contains specific kinase/substrate pairs along with required cofactors. Base reaction buffer: 20 mM Hepes (pH 7.5), 10 mM MgCl2, 1 mM EGTA, 0.02% Brij35, 0.02 mg/mL BSA, 0.1 mM Na3VO4, 2 mM DTT, 1% DMSO. The tested compounds were dissolved in 100% DMSO to specific concentration. The serial dilution was conducted by Integra Viaflo Assist in DMSO (Sigma-Aldrich, Burlington, MA, USA). The reaction mixture containing the examined compound and 33P-ATP was incubated at room temperature for 2 h, and radioactivity was detected by filter-binding method. Kinase activity data were expressed as the percent remaining kinase activity in test samples compared to vehicle (dimethyl sulfoxide) reactions. IC50 values and curve fits were obtained using Prism (GraphPad Software, San Diego, CA, USA).

[3] = EGFR kinase, dose dependent assay, read-out: IC50
[4] = EGFR, read-out: EC50 of the curve fit printed in Figure 6 (IC50 per legend)

T1 sequence (P00533 25-1210): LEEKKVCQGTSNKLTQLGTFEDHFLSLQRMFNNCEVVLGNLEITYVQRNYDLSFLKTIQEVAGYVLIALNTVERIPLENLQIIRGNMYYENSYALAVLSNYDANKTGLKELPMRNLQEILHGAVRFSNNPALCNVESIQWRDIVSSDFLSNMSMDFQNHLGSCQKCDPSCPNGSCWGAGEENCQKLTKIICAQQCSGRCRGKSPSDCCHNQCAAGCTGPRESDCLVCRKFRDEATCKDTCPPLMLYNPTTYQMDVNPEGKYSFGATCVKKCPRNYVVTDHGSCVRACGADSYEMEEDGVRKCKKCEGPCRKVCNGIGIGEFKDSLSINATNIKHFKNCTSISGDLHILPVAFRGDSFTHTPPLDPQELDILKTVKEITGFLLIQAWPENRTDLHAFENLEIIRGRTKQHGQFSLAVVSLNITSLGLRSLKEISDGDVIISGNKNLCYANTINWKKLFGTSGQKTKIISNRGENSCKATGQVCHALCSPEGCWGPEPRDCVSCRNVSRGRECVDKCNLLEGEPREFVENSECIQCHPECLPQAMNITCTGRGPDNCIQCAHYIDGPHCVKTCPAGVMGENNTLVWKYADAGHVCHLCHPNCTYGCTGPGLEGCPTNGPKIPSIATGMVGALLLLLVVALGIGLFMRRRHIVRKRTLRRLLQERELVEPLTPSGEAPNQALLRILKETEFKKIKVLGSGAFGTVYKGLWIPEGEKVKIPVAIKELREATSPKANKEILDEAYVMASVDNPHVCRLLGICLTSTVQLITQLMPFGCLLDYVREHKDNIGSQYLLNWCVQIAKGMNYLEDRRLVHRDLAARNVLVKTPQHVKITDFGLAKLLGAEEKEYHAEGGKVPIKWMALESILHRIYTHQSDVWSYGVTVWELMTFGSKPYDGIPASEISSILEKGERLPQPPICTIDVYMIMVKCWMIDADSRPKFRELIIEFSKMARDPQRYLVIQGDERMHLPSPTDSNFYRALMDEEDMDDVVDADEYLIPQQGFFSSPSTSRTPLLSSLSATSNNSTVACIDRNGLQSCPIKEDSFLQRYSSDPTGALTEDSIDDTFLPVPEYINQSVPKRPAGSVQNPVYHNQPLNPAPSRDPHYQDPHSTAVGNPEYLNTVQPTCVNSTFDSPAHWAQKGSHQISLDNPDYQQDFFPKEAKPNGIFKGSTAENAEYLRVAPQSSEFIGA

Row | Compound | melting point | inhibition at 10 µM ([1]; EGFR kinase) | inhibition at 10 µM [2] | Average % Enzyme Inhibition (Relative to DMSO Controls) at 10 µM ([1]; EGFR kinase) | IC50 [1, 3] | IC50 [1, 4]
1 | NS(=O)(=O)c1ccc(Nc2ncnc3ccc(Br)cc23)cc1 [Compound 3a, 4-((6-Bromoquinazolin-4-yl)amino)benzenesulfonamide] | 322.2 to 324.5 °C | -13.2 ± 4.31% | 26.97 ± 0.24% |  |  | 
2 | NS(=O)(=O)c1cccc(Nc2ncnc3ccc(-c4cccnc4)cc23)c1 [Compound 4f, 3-((6-(Pyridin-3-yl)quinazolin-4-yl)amino)benzenesulfonamide] | 320 to 321.5 °C | 4.57 ± 2.16% | 23.5 ± 5.36% |  |  | 
3 | NS(=O)(=O)c1ccc(Nc2ncnc3cc(-c4ccc(CN5CCOCC5)cc4)ccc23)cc1 [Compound 4d, 4-((7-(4-(Morpholinomethyl)phenyl)quinazolin-4-yl)amino)benzenesulfonamide] | 228.1 to 229.8 °C | > 50% | 18.9 ± 1.09% | 65.76 ± 0.98% | 2760 nM | 2760 nM
4 | NS(=O)(=O)c1cccc(Nc2ncnc3cc(-c4cccc(CN5CCOCC5)c4)ccc23)c1 [Compound 4e, 3-((7-(3-(Morpholinomethyl)phenyl)quinazolin-4-yl)amino)benzenesulfonamide] | 267.5 to 269 °C | > 50% | -21.35 ± 0.09% | 63.28 ± 0.21% | 1060 nM | 1060 nM
5 | NS(=O)(=O)c1ccc(Nc2ncnc3ccc(-c4cccnc4)cc23)cc1 [Compound 4a, 4-((6-(Pyridin-3-yl)quinazolin-4-yl)amino)benzenesulfonamide] | 315.1 to 316.2 °C | 0.56 ± 4.32% | 25.81 ± 0.24% |  |  | 
6 | NS(=O)(=O)c1ccc(Nc2ncnc3ccc(-c4ccc(C=O)o4)cc23)cc1 [Compound 4b, 4-((6-(5-Formylfuran-2-yl)quinazolin-4-yl)amino)benzenesulfonamide] |  | 25.2 ± 1.25% | 26.7 ± 0.45% |  |  | 
